From US6339064B1, “Benzylglycosylamides as inhibitors of smooth muscle cell proliferation” (American Home Products Corporation, priority 1998, dated 2002) come the findings set out here.

The test system of this assay is Porcine Smooth Muscle Cell. As to the kind of experiment: Effects of compounds on cell proliferation using 3H thymidine incorporation (porcine smooth muscle cell antiproliferation). The format is cell-based. The conditions noted are these: for IC50: serum/growth factor stimulated cells, 24-36 h incubation; for Porcine Smooth Muscle Cell Antiproliferation, % at 50 μM: control (100%) = maximally stimulated cells. The protocol: Effects of Compounds on Cell Proliferation Using ^3H Thymidine Incorporation
Human and porcine smooth muscle cells were tested in early passage (generally passage 3-7) at sub-confluent conditions. Cultures were grown in 16 mm (24 well) multi-well culture dishes in medium 199 supplemented with 10% fetal bovine serum and 2% antibiotic/antimycotic. At sub-confluence, the cells were placed in a defined serum free medium (AIM-V; Gibco) for 24-48 h prior to initiating the experimental protocol.
Compounds were added to each well at 50 fold dilution (20 μL/well) and the plates were incubated for 24-36 h at 37° C. in 5% CO2. Compounds were initially dissolved in 50% ethanol and serially diluted into media. Compounds were routinely evaluated at concentrations from 1 to 100 μM. As a control, grade II porcine intestinal mucosal herapin (sodium salt) was routinely evaluated in all cell preparations at concentrations from 0.1 to 100 μg/mL.
At the completion of the test procedure, plates were placed on ice, washed three times with ice cold phosphate buffered saline (PBS) and incubated in ice cold 10% trichloroacetic acid (TCA) got 30 min to remove acid soluble proteins. Solution was transferred to scintillation vials containing 0.4 N HCl (500 μL/vial to neutralize NaOH) and each well was rinsed two times with water (500 μL) for a total volume of 2 mL/vial.
Data was obtained, in triplicate, for both control and experimental samples. Control (100%) data was obtained from maximally stimulated cells, as the result of growth factor or serum stimulation. Experimental data was obtained from cells maximally stimulated with growth factor or serum and treated with compound. Data are expressed as an IC50 in Table I below.
(In general: Uptake of a labelled nucleoside into DNA is a usual measure of proliferation.)

For orientation: IC50 means the concentration that gives 50% inhibition. A higher IC50 goes with weaker potency in that assay.

Regarding `N#CCCCOc1ccc(C(=O)NC2OC(COC(=O)c3ccccc3)C(OC3OC4COC(c5ccccc5)OC4C(O)C3O)C(O)C2O)cc1[N+](=O)[O-]` [Example 30, N-(6-O-Benzoyl-4′,6′-O-benzylidene-β-D-maltosyl)-4-(4-nitrilo-butoxy)-3-nitro-benzamide], the IC50 amounted to 1.4 µM. Consider `CCCCOc1c(Cl)cc(C(=O)N[C@@H]2O[C@H](CO)[C@@H](O[C@H]3O[C@@H]4COC(c5ccccc5)O[C@H]4[C@H](O)[C@H]3O)[C@H](O)[C@H]2O)cc1OC.O` (stereo partly drawn) [Example 26, 4-butoxy-3-chloro-N-[(4′,6′-O-benzylidene)-β-D-maltosyl]-5-methoxy-benzamide Hydrate], for which the “Porcine Smooth Muscle Cell Antiproliferation, % at 50 μM” value amounted to 32% at 50. Regarding `O=C(NC1OC(CO)C(OC2OC3COC(c4ccccc4)OC3C(O)C2O)C(O)C1O)c1ccc(Cl)c([N+](=O)[O-])c1` [Example 5, (R)-4-chloro-3-nitro-N-[4-O-[4,6-O-(phenylmethylene)-α-D-glucopyranosyl]-β-D-glucopyranosyl]-benzamide], the “Porcine Smooth Muscle Cell Antiproliferation, % at 50 μM” value turned out to be 37% at 50.

Molecule `CC(=O)OC[C@H]1O[C@@H](NC(=O)c2ccc(C)nc2)[C@H](OC(C)=O)[C@@H](OC(C)=O)[C@@H]1O[C@H]1O[C@H](COC(C)=O)[C@@H](OC(C)=O)[C@H](OC(C)=O)[C@H]1OC(C)=O` [Example 41, N-(Hepta-O-acetyl-β-D-maltosyl)-6-methylpyridine-3-carboxamide] yielded a half-maximal inhibitory concentration (IC50) of 65.8 µM.

Turning to `N#CCCCOc1ccc(C(=O)NC2OC(CO)C(OC3OC4COC(c5ccccc5)OC4C(O)C3O)C(O)C2O)cc1Cl` [Example 15, N-(4′,6′-O-Benzylidene-β-D-maltosyl)-3-chloro-4-(4-nitrilo-butoxy)-benzamide], the “Porcine Smooth Muscle Cell Antiproliferation, % at 50 μM” value is recorded as 30% at 50. Regarding `COc1ccc(C(=O)N[C@@H]2O[C@H](COC(C)=O)[C@@H](O[C@H]3O[C@H](COC(C)=O)[C@@H](OC(C)=O)[C@H](OC(C)=O)[C@H]3OC(C)=O)[C@H](OC(C)=O)[C@H]2OC(C)=O)cc1Cl` [Example 44, N-(Hepta-O-acetyl-β-D-maltosyl)-3-chloro-4-methoxy-benzamide], the IC50 turned out to be 5.4 µM. Still for that read-out and setting: with `CCCCOc1c(Cl)cc(C(=O)NC2OC(CO)C(OC3OC4COC(c5ccccc5)OC4C(O)C3O)C(O)C2O)cc1Cl` [Example 43, N-(4′,6′-O-Benzylidene-β-D-maltosyl)-4-butoxy-3,5-dichloro-benzamide] the figure was 44.5 µM; with `CC(=O)OC[C@H]1O[C@@H](NC(=O)Cc2ccc(Cl)c([N+](=O)[O-])c2)[C@H](OC(C)=O)[C@@H](OC(C)=O)[C@@H]1O[C@H]1O[C@H](COC(C)=O)[C@@H](OC(C)=O)[C@H](OC(C)=O)[C@H]1OC(C)=O` [Example 50, N-(2,2′,3,3′,4′,6,6′-hepta-O-acetyl-β-D-maltosyl)-2-(4-chloro-3-nitro-phenyl)-acetamide], 4.23 µM. In turn, `CC(=O)Nc1cc(C(=O)NC2OC(CO)C(OC3OC4COC(c5ccccc5)OC4C(O)C3O)C(O)C2O)ccc1Cl` [Example 4, (R)-3-(Acetylamino)-4-chloro-N-[4-O-[4,6-O-(phenylmethylene)-α-D-glucopyranosyl]-β-D-glucopyranosyl]-benzamide] came in with an IC50 of 3.2 µM. On the same count and under the same terms, the figure for `CC(=O)Nc1cc(CC(=O)N[C@@H]2O[C@H](COC(=O)c3ccccc3)[C@@H](O[C@H]3O[C@@H]4COC(c5ccccc5)O[C@H]4[C@H](O)[C@H]3O)[C@H](O)[C@H]2O)ccc1Cl` (some centres unmarked) [Example 51] is 0.916 µM; for `COc1ccc(C(=O)N[C@@H]2O[C@H](COC(C)=O)[C@@H](O[C@H]3O[C@H](COC(C)=O)[C@@H](OC(C)=O)[C@H](OC(C)=O)[C@H]3OC(C)=O)[C@H](OC(C)=O)[C@H]2OC(C)=O)c(OC)n1` [Example 36, N-(Hepta-O-acetyl-β-D-maltosyl)-2,6-dimethoxy-pyridine-3-carboxamide] it is 13.6 µM; for `CC(=O)OC[C@H]1O[C@@H](NC(=O)c2cccc(C(F)(F)F)c2)[C@H](OC(C)=O)[C@@H](OC(C)=O)[C@@H]1O[C@H]1O[C@H](COC(C)=O)[C@@H](OC(C)=O)[C@H](OC(C)=O)[C@H]1OC(C)=O` [Example 38, N-(Hepta-O-acetyl-β-D-maltosyl)-3-(trifluoromethyl)-benzamide] it is 5.8 µM. As for `CC(=O)OC[C@H]1O[C@@H](NC(=O)Cc2ccc(O)c([N+](=O)[O-])c2)[C@H](OC(C)=O)[C@@H](OC(C)=O)[C@@H]1O[C@H]1O[C@H](COC(C)=O)[C@@H](OC(C)=O)[C@H](OC(C)=O)[C@H]1OC(C)=O` [Example 48, N-(Hepta-O-acetyl-β-D-maltosyl)-2-(4-hydroxy-3-nitro-phenyl)-acetamide], the “Porcine Smooth Muscle Cell Antiproliferation, % at 50 μM” value is recorded as 37% at 50.

With `N#CCCCOc1ccc(C(=O)NC2OC(COC(=O)c3ccccc3)C(OC3OC4COC(c5ccccc5)OC4C(O)C3O)C(O)C2O)cc1Cl` [Example 16, N-(6-O-Benzoyl-4′,6′-O-benzylidene-β-D-maltosyl)-3-chloro-4-(4-nitrilo-butoxy)-phenyl amide], the 50% inhibitory concentration (IC50) was found to be 0.27 µM. On to `CC(=O)OC1C(NC(=O)c2ccc(OCCCC#N)c(Cl)c2)OC(COC(=O)c2ccccc2)C(OC2OC3COC(c4ccccc4)OC3C(OC(C)=O)C2OC(C)=O)C1OC(C)=O` [Example 17, N-(2,2′,3,3′-tetra-O-Acetyl-6-O-benzoyl-4′,6′-O-benzylidene-β-D-maltosyl)-3-chloro-4-(4-nitrilo-butoxy)-benzamide], for which the “Porcine Smooth Muscle Cell Antiproliferation, % at 50 μM” value came out at 33% at 50. The molecule `CCCCOc1ccc(C(=O)NC2OC(COC(=O)c3ccccc3)C(OC3OC4COC(c5ccccc5)OC4C(O)C3O)C(O)C2O)cc1Cl` [Example 20, 4-Butoxy-3-chloro-N-[(6-O-benzoyl-4′,6′-O-benzylidene)-β-D-maltosyl]-benzamide] had an IC50 of 3.14 µM. Take `O=C(NC1OC(COC(=O)c2ccccc2)C(OC2OC3COC(c4ccccc4)OC3C(O)C2O)C(O)C1O)c1ccc(Cl)cc1` [Example 12, N-(6-O-benzoyl-4′,6′-O-benzylidene-β-D-maltosyl)-4-chloro-benzamide]: the midpoint of inhibition, the IC50, lay at 49.2 µM. On to `COc1ccc(CC(=O)NC2OC(COC(=O)c3ccccc3)C(OC3OC4COC(c5ccccc5)OC4C(O)C3O)C(O)C2O)cc1OC` [Example 47, N-(6-O-Benzoyl-4′,6′-O-benzylidene-β-D-maltosyl)-2-(3,4-dimethoxy-phenyl)-acetamide], for which the half-inhibitory concentration (IC50) worked out at 8 µM. The same measure, in the same setting: the figure for `CC(=O)O[C@@H]1[C@@H](OC(C)=O)[C@H](NC(=O)c2ccc(Cl)c([N+](=O)[O-])c2)O[C@H](COC(=O)c2ccccc2)[C@H]1O[C@H]1O[C@@H]2COC(c3ccccc3)O[C@H]2[C@H](OC(C)=O)[C@H]1OC(C)=O` (stereo partly drawn) [Example 8, 4-Chloro-N-[(2,2′,3,3′-tetra-O-acetyl-6-benzoyl-4′,6′-O benzylidene)-β-D-maltosyl]-3-nitro-benzamide] is 0.26 µM. The same measure, in the same setting: the figure for `CC(=O)OC[C@H]1O[C@@H](NC(=O)c2cncc(Br)c2)[C@H](OC(C)=O)[C@@H](OC(C)=O)[C@@H]1O[C@H]1O[C@H](COC(C)=O)[C@@H](OC(C)=O)[C@H](OC(C)=O)[C@H]1OC(C)=O` [Example 37, N-(Hepta-O-acetyl-β-D-maltosyl)-5-bromopyridine-3-carboxamide] is 16.4 µM.

Consider `COc1cc(C(=O)NC2OC(CO)C(OC3OC4COC(c5ccccc5)OC4C(O)C3O)C(O)C2O)ccc1Cl` [Example 23, N-(4′,6′-O-Benzylidene-β-D-maltosyl)-4-chloro-3-methoxy-benzamide], for which the “Porcine Smooth Muscle Cell Antiproliferation, % at 50 μM” value is reported as 2% at 50. For `CC(=O)OC[C@H]1O[C@@H](NC(=O)c2ccc(Cl)c([N+](=O)[O-])c2)[C@H](OC(C)=O)[C@@H](OC(C)=O)[C@@H]1O[C@H]1O[C@H](COC(C)=O)[C@@H](OC(C)=O)[C@H](OC(C)=O)[C@H]1OC(C)=O` [Example 1, N-(Hepta-O-acetyl-1-deoxy-β-D-maltosyl)-4-chloro-3-nitro-benzamide], half-maximal inhibition (IC50) was put at 21.2 µM. Same read-out and setting: with `COc1ccc(CC(=O)N[C@@H]2O[C@H](COC(C)=O)[C@@H](O[C@H]3O[C@H](COC(C)=O)[C@@H](OC(C)=O)[C@H](OC(C)=O)[C@H]3OC(C)=O)[C@H](OC(C)=O)[C@H]2OC(C)=O)cc1OC` [Example 45, N-(2,2′,3,3′,4′,6,6′-hepta-O-acetyl-β-D-maltosyl)-1-(3,4-dimethoxy)-phenyl-acetamide] the figure was 16.6 µM. On to `CC(=O)OC[C@H]1O[C@@H](NC(=O)c2ccc(OCCCC#N)c(Cl)c2)[C@H](OC(C)=O)[C@@H](OC(C)=O)[C@@H]1O[C@H]1O[C@H](COC(C)=O)[C@@H](OC(C)=O)[C@H](OC(C)=O)[C@H]1OC(C)=O` [Example 13], for which the IC50 came out at 32.8 µM.

Molecule `CC(=O)OC[C@H]1O[C@@H](NC(=O)c2ccc(Cl)nc2)[C@H](OC(C)=O)[C@@H](OC(C)=O)[C@@H]1O[C@H]1O[C@H](COC(C)=O)[C@@H](OC(C)=O)[C@H](OC(C)=O)[C@H]1OC(C)=O` [Example 35, N-(Hepta-O-acetyl-β-D-maltosyl)-6-chloropyridine-3-carboxamide] returned an IC50 of 66.6 µM. In turn, `CC(=O)Nc1cc(C(=O)NC2OC(COC(=O)c3ccccc3)C(OC3OC4COC(c5ccccc5)OC4C(O)C3O)C(O)C2O)ccc1Cl` [Example 6, (R)-3-(Acetylamino)-N-[6-O-benzoyl-4-O-[4,6-O-(phenylmethylene)-α-D-glucopyranosyl]-β-D-glucopyranosyl]-4-chloro-benzamide] gave an IC50 of 0.45 µM.
